Measurements as given in patent US5484717A, “Antibiotic 31F508α1, 31F508α2, 31F508β1, 31F508β2” (American Cyanamid Company, priority 1995, dated 1996).
Like-named read-outs stand apart in the source and are kept apart here.

Assays:
[1] = Stability (conversion in neutral or basic solution; decomposition on drying); type: physicochemical; details: listed as α1
Procedure: The crude product is then separated into the α1, α2, β1 and β2 components and further purified by high performance liquid chromatography on a reverse-phase column equilibrated with 0.1% trifluoroacetic acid in water followed by slution with an acetonitrile gradient to 10%. Active fractions are pooled and freeze dried. Freeze dried fractions are dissolved in 0.01M hydrochloric acid, applied to a reverse phase column and eluted with an acetonitrile gradient to 10% resolves the two components α1 and α2. […] Beta is the quinone form of α1 or α2 having lost hydrogens from the oxygens connected to carbon10 and 13.
The freeze dried material is suspended in methanol and the insolubles removed by filtration. The soluble material is concentrated to dryness and the concentrate dissolved in 1% trifluoroacetic acid in water. Insolubles are removed by centrifugation. The soluble material is loaded onto a preparative reverse phase C18 column equilibrated with 0.1% trifluoroacetic acid in water. The column is eluted with an acetonitrile gradient to 10%. Active fractions containing the alpha component are pooled and freeze dried. Active fractions containing the beta component are adjusted to pH 8 with solid ammonium bicarbonate and extracted with methylene chloride. The beta component is stored in methylene chloride as drying leads to rapid decomposition. […]

[2] = test system: E. faecalis (ID-2131); test: In vitro antibacterial activity, agar dilution MIC; type: cell-based; details: Enterococcus faecalis, 18 h, read-out: Minimum Inhibitory Concentration
Procedure: (§1) The in vitro antibacterial activity of 31F508α1 and α2 is determined against a spectrum of gram-positive and gram-negative bacteria by a standard agar dilution method. Mueller-Hinton agar with and without 5% sheep blood and two-fold decreasing concentrations of either 31F508α1 or α2 are poured into petri dishes. The agar surfaces are inoculated with 1 to 5×10^4 colony forming units of bacteria by means of the Steers replicating device. The lowest concentration of antibiotic that inhibits growth of a bacterial strain after 18 hours incubation is recorded as the minimal inhibitory concentration for that strain. The results are given in Table V with sheeps blood added to the agar.

[3] = test system: Staphylococcus aureus (ID-4379); test: In vitro antibacterial activity, agar dilution MIC; type: cell-based; details: 18 h, read-out: Minimum Inhibitory Concentration
Procedure: as §1

[4] = test system: E. Avium (ID-3953); test: In vitro antibacterial activity, agar dilution MIC; type: cell-based; details: Enterococcus avium, 18 h, read-out: Minimum Inhibitory Concentration
Procedure: as §1

[5] = test system: Staphylococcus aureus (SMITH); test: In vitro antibacterial activity, agar dilution MIC; type: cell-based; details: 18 h, read-out: Minimum Inhibitory Concentration
Procedure: as §1

[6] = test system: E. faecalis (12201); test: In vitro antibacterial activity, agar dilution MIC; type: cell-based; details: Enterococcus faecalis, 18 h, read-out: Minimum Inhibitory Concentration
Procedure: as §1

[7] = test system: Staphylococcus haemolyticus (ID-4061); test: In vitro antibacterial activity, agar dilution MIC; type: cell-based; details: 18 h, read-out: Minimum Inhibitory Concentration
Procedure: as §1

[8] = test system: E. coli (J2175); test: In vitro antibacterial activity, agar dilution MIC; type: cell-based; details: Escherichia coli, 18 h, read-out: Minimum Inhibitory Concentration
Procedure: as §1

[9] = test system: Staphylococcus aureus (ID-2371); test: In vitro antibacterial activity, agar dilution MIC; type: cell-based; details: 18 h, read-out: Minimum Inhibitory Concentration
Procedure: as §1

[10] = test system: E. faecium (12202); test: In vitro antibacterial activity, agar dilution MIC; type: cell-based; details: Enterococcus faecium, 18 h, read-out: Minimum Inhibitory Concentration
Procedure: as §1

[11] = test system: E. faecalis (ID-4168); test: In vitro antibacterial activity, agar dilution MIC; type: cell-based; details: Enterococcus faecalis, 18 h, read-out: Minimum Inhibitory Concentration
Procedure: as §1

[12] = test system: Staphylococcus aureus (ID-2727); test: In vitro antibacterial activity, agar dilution MIC; type: cell-based; details: 18 h, read-out: Minimum Inhibitory Concentration
Procedure: as §1

[13] = test system: M. morganii (VGH 84-11); test: In vitro antibacterial activity, agar dilution MIC; type: cell-based; details: Morganella morganii, 18 h, read-out: Minimum Inhibitory Concentration
Procedure: as §1

[14] = test system: E. coli (ATCC 25922); test: In vitro antibacterial activity, agar dilution MIC; type: cell-based; details: 18 hours
Procedure: as §1

[15] = test system: S. lutea (ATCC 9341); test: In vitro antibacterial activity, agar dilution MIC; type: cell-based; details: 18 hours
Procedure: as §1

[16] = test system: E. coli (J2445); test: In vitro antibacterial activity, agar dilution MIC; type: cell-based; details: Escherichia coli, 18 h, read-out: Minimum Inhibitory Concentration
Procedure: as §1

[17] = test system: CNS (ID-3120); test: In vitro antibacterial activity, agar dilution MIC; type: cell-based; details: 18 h
Procedure: as §1

[18] = test system: S. agalactiae (ID-4079); test: In vitro antibacterial activity, agar dilution MIC; type: cell-based; details: Streptococcus agalactiae
Procedure: as §1

[19] = test system: E. faecalis (ID-1829); test: In vitro antibacterial activity, agar dilution MIC; type: cell-based; details: Enterococcus faecalis, 18 h, read-out: Minimum Inhibitory Concentration
Procedure: as §1

[20] = test system: P. aeruginosa (ATCC 27853); test: In vitro antibacterial activity, agar dilution MIC; type: cell-based; details: 18 hours
Procedure: as §1

[21] = test system: E. faecalis (ATCC 29212); test: In vitro antibacterial activity, agar dilution MIC; type: cell-based; details: Enterococcus faecalis, ATCC29212, 18 h, read-out: Minimum Inhibitory Concentration
Procedure: as §1

[22] = test system: CNS (ID-3941); test: In vitro antibacterial activity, agar dilution MIC; type: cell-based; details: 18 h
Procedure: as §1

[23] = test system: E. faecium (ID-4133); test: In vitro antibacterial activity, agar dilution MIC; type: cell-based; details: 18 hours
Procedure: as §1

[24] = test system: Staphylococcus aureus (ID-3105); test: In vitro antibacterial activity, agar dilution MIC; type: cell-based; details: 18 h, read-out: Minimum Inhibitory Concentration
Procedure: as §1

[25] = test system: E. faecium (ID-3301); test: In vitro antibacterial activity, agar dilution MIC; type: cell-based; details: Enterococcus faecium, 18 h, read-out: Minimum Inhibitory Concentration
Procedure: as §1

[26] = test system: Staphylococcus aureus (ATCC 29213); test: In vitro antibacterial activity, agar dilution MIC; type: cell-based; details: ATCC29213, 18 h, read-out: Minimum Inhibitory Concentration
Procedure: as §1

[27] = test system: Staphylococcus aureus (MEMC-89-4); test: In vitro antibacterial activity, agar dilution MIC; type: cell-based; details: 18 h, read-out: Minimum Inhibitory Concentration
Procedure: as §1

[28] = test system: S. Pyogenes (ID-3187); test: In vitro antibacterial activity, agar dilution MIC; type: cell-based; details: Streptococcus pyogenes, 18 h, read-out: Minimum Inhibitory Concentration
Procedure: as §1

[29] = test system: Streptococcus pneumoniae (ID-4444); test: In vitro antibacterial activity, agar dilution MIC; type: cell-based; details: 18 h, read-out: Minimum Inhibitory Concentration
Procedure: as §1

[30] = test system: B. cereus (Bacto); test: In vitro antibacterial activity, agar dilution MIC; type: cell-based; details: Bacillus cereus, 18 h, read-out: Minimum Inhibitory Concentration
Procedure: as §1

[31] = test system: CNS (4615); test: In vitro antibacterial activity, agar dilution MIC; type: cell-based; details: 18 h
Procedure: as §1

[32] = test system: CNS (ID-3276); test: In vitro antibacterial activity, agar dilution MIC; type: cell-based; details: 18 h, read-out: Minimum Inhibitory Concentration, CNS (ID-3276), without sheep blood
Procedure: as §1

COc1c(C)c(O)c2c(c1O)C1COC3C4CC5C(N4)C(C2N2CCOC52)N13 (stereo not drawn) [31F508α1]
1 µg/mL: MIC ([8]; without sheep blood) | MIC ([13]; without sheep blood) | MIC ([14]; Escherichia coli, ATCC25922, without sheep blood, read-out: Minimum Inhibitory Concentration) | MIC ([30]; with 5% sheep blood)
converts to the beta form: Conversion to the beta (quinone) form [1]
1.000 µg/mL: Minimum Inhibitory Concentration ([14]; with 5% sheep blood)
0.5 µg/mL: MIC ([19]; with 5% sheep blood) | MIC ([30]; without sheep blood)
0.008 µg/mL: MIC ([5]; with 5% sheep blood) | MIC ([7]; without sheep blood) | MIC ([12]; without sheep blood) | MIC ([29]; with 5% sheep blood) | MIC [32]
0.03 µg/mL: MIC ([3]; without sheep blood) | MIC ([6]; without sheep blood) | MIC ([9]; without sheep blood) | MIC ([10]; without sheep blood) | MIC ([17]; read-out: Minimum Inhibitory Concentration, CNS (ID-3120), with 5% sheep blood) | MIC ([22]; read-out: Minimum Inhibitory Concentration, CNS (ID-3941), without sheep blood) | MIC ([24]; without sheep blood) | MIC ([27]; without sheep blood) | MIC ([31]; read-out: Minimum Inhibitory Concentration, CNS (4615), with 5% sheep blood)
0.06 µg/mL: MIC ([4]; without sheep blood) | MIC ([6]; with 5% sheep blood) | MIC ([9]; with 5% sheep blood) | MIC ([11]; without sheep blood) | MIC ([16]; without sheep blood) | MIC ([21]; without sheep blood) | MIC ([22]; read-out: Minimum Inhibitory Concentration, CNS (ID-3941), with 5% sheep blood) | MIC ([24]; with 5% sheep blood) | MIC ([25]; without sheep blood) | MIC ([26]; Staphylococcus aureus (ATCC 29213-), without sheep blood) | MIC ([27]; with 5% sheep blood)
2 µg/mL: MIC ([8]; with 5% sheep blood) | MIC ([13]; with 5% sheep blood) | MIC ([20]; Pseudomonas aeruginosa, ATCC27853, without sheep blood, read-out: Minimum Inhibitory Concentration)
0.004 µg/mL: MIC ([5]; without sheep blood) | MIC ([18]; 18 h, read-out: Minimum Inhibitory Concentration, S. acralactiae (ID-4079), without sheep blood) | MIC ([28]; with 5% sheep blood)
0.12 µg/mL: MIC ([2]; without sheep blood) | MIC ([3]; with 5% sheep blood) | MIC ([11]; with 5% sheep blood) | MIC ([16]; with 5% sheep blood) | MIC ([19]; without sheep blood) | MIC ([21]; with 5% sheep blood) | MIC ([25]; with 5% sheep blood) | MIC ([26]; Staphylococcus aureus (ATCC 29213), with 5% sheep blood)
0.25 µg/mL: MIC ([2]; with 5% sheep blood) | MIC ([4]; with 5% sheep blood) | MIC ([10]; with 5% sheep blood)
0.002 µg/mL: MIC ([15]; Micrococcus luteus, ATCC9341, without sheep blood, read-out: Minimum Inhibitory Concentration) | Minimum Inhibitory Concentration ([15]; with 5% sheep blood) | MIC ([23]; Enterococcus faecium, without sheep blood, read-out: Minimum Inhibitory Concentration) | Minimum Inhibitory Concentration ([23]; with 5% sheep blood) | MIC ([28]; without sheep blood) | MIC ([29]; without sheep blood)
2.000 µg/mL: Minimum Inhibitory Concentration ([20]; with 5% sheep blood)
0.015 µg/mL: MIC ([7]; with 5% sheep blood) | MIC ([12]; with 5% sheep blood) | MIC ([17]; read-out: Minimum Inhibitory Concentration, CNS (ID-3120), without sheep blood) | MIC ([18]; S. agalactiae (ID-4079), with 5% sheep blood, 18 hours, read-out: Minimum Inhibitory Concentration) | MIC ([31]; read-out: Minimum Inhibitory Concentration, CNS (4615), without sheep blood)
